# What was measured:
# sheep body louse D. ovis = test: Example 3, varying concentration of active: lice counts on sheep; type: in vivo, Damalinia ovis
# Experimental: Testing for ectoparasite infestation was carried out by counting the number of parasites present in 20 partings taken on each side of the sheep (40 partings in total).
# In order to determine the minimum effective concentration of active agent possible upon application of 150 mL/50 kg sheep, the following formulations were prepared: […]
# For each of Examples 3A-E, the treatments were applied immediately after shearing along the backline in 4-6 strips (depending on the volume to be applied. Details are as follows:
# Treatments were applied using the NZ Protector dial-a-dose drench/pour-on gun.
# Once treated, each group was penned separately in electrified paddocks where they were kept for the duration of the trial.
# Lice counts were performed pre-shearing 7, 14, 21, 28, 35 and 42 days after treatment using the 20 partings per side technique.
# Percentage reduction in lice counts was calculated using the change in lice counts for the control group as a correction factor, using the formula given in example 1.
# [1] = Example 6, degree of translocation: diazinon levels in wool and skin scrapings; type: in vivo, sheep; settings: for DIAZINON (PPM) - WHOLE WOLL BELLY-LINE MEAN / DIAZINON (PPM) - WHOLE WOLL MIDLINE MEAN: Example 6 formulation, 3mL per kg
# Experimental: A 3 year old merino was shorn, weighed and treated immediately with the diazinon spray-on. It had not received any insecticide treatment for 12 months. The sheep weighed 37 kg and was treated with 110mL of the product. A wide band was applied from high on the neck, behind the ears, to the butt of the tail at a dosage rate of 3mL per kg bodyweight.
# The animal was hand restrained during treatment and placed under cover in a pen with mesh floor and sides for the duration of the trial.
# During and after treatment, the sheep had no contact with other treated animals and was not exposed to any rain.
# On advice from the State Chemistry Laboratory, Department of Agriculture, Victoria, approximately 2cm square scrapings of wool and skin were taken as follows:
# The values (PPM diazinon) are reported on a whole wool basis.
# The approximate concentration in wool grease can be calculated on the basis of the average wool grease content of the wool is 18.4% w/w ie., multiply the individual results by a factor of 5.4.
smiles,measurement,setting,value
CCOP(=S)(OCC)Oc1cc(C)nc(C(C)C)n1 [Diazinon],eradication of the sheep body louse D. ovis,sheep body louse D. ovis; 10 mg/kg (0.33% w/w),failed to eradicate
same,eradication of the sheep body louse D. ovis,sheep body louse D. ovis; 15 mg/kg (0.5% w/w),failed to eradicate
same,DIAZINON (PPM) - WHOLE WOLL (MEAN VALUES) BELLY-LINE LEFT,[1]; 1 day post treatment,407 PPM
same,DIAZINON (PPM) - WHOLE WOLL (MEAN VALUES) BELLY-LINE RIGHT,[1]; 1 day post treatment,190 PPM
same,DIAZINON (PPM) - WHOLE WOLL (MEAN VALUES) MIDLINE LEFT,[1]; 1 day post treatment,808 PPM
same,DIAZINON (PPM) - WHOLE WOLL (MEAN VALUES) MIDLINE RIGHT,[1]; 1 day post treatment,330 PPM
same,DIAZINON (PPM) - WHOLE WOLL BELLY-LINE MEAN,[1]; 1 day post treatment,298 PPM
same,DIAZINON (PPM) - WHOLE WOLL MIDLINE MEAN,[1]; 1 day post treatment,569 PPM
same,DIAZINON (PPM) - WHOLE WOLL (MEAN VALUES) BELLY-LINE LEFT,[1]; 3 days post treatment,185 PPM
same,DIAZINON (PPM) - WHOLE WOLL (MEAN VALUES) BELLY-LINE RIGHT,[1]; 3 days post treatment,112 PPM
same,DIAZINON (PPM) - WHOLE WOLL (MEAN VALUES) MIDLINE LEFT,[1]; 3 days post treatment,496 PPM
same,DIAZINON (PPM) - WHOLE WOLL (MEAN VALUES) MIDLINE RIGHT,[1]; 3 days post treatment,323 PPM
same,DIAZINON (PPM) - WHOLE WOLL BELLY-LINE MEAN,[1]; 3 days post treatment,148.5 PPM
same,DIAZINON (PPM) - WHOLE WOLL MIDLINE MEAN,[1]; 3 days post treatment,410 PPM
same,DIAZINON (PPM) - WHOLE WOLL (MEAN VALUES) BELLY-LINE LEFT,[1]; 7 days post treatment,287 PPM
same,DIAZINON (PPM) - WHOLE WOLL (MEAN VALUES) BELLY-LINE RIGHT,[1]; 7 days post treatment,216 PPM
same,DIAZINON (PPM) - WHOLE WOLL (MEAN VALUES) MIDLINE LEFT,[1]; 7 days post treatment,503 PPM
same,DIAZINON (PPM) - WHOLE WOLL (MEAN VALUES) MIDLINE RIGHT,[1]; 7 days post treatment,237 PPM
same,DIAZINON (PPM) - WHOLE WOLL BELLY-LINE MEAN,[1]; 7 days post treatment,251.2 PPM
same,DIAZINON (PPM) - WHOLE WOLL MIDLINE MEAN,[1]; 7 days post treatment,370 PPM
same,"diazinon in whole wool, belly-line right rump",[1]; Day 1,53 PPM
same,"diazinon in the wool grease, belly-line right rump","[1]; Day 1, whole wool value multiplied by 5.4",286 PPM
